Measured values: paper PMC7400207, “It Takes Two: Dimerization Is Essential for the Broad-Spectrum Predatory and Defensive Activities of the Venom Peptide Mp1a from the Jack Jumper Ant Myrmecia pilosula” (Biomedicines, 2020)
Marks after values point to notes of the source that are not given here.

Key:
F11 cells = experiment: FLIPR calcium assay, activation of F11 cells; format: cell-based; settings: F11 cells, FLIPR
Experimental: F11 cells were cultured as previously described. Cells were maintained on Ham’s F12 media supplemented with 10% fetal bovine serum (FBS), 100 µM hypoxanthine, 0.4 µM aminopterin, and 16 µM thymidine (Hybri-MaxTM, Sigma Aldrich, North Ryde, Australia). Then, 384-well imaging plates (Corning) were seeded 48 h prior to imaging resulting in 90–95% confluence at imaging. Cells were incubated for 30 min with the Calcium 4 assay component A according to the manufacturer’s instructions (Molecular Devices, Sunnyvale, CA, USA) in physiological salt solution (PSS; composition in mM: 140 NaCl, 11.5 D-glucose, 5.9 KCl, 1.4 MgCl2, 1.2 NaH2PO4, 5 NaHCO3, 1.8 CaCl2, 10 HEPES) at 37°C. Fluorescence was measured using a fluorescent imaging plate reader (FLIPR^TETRA) equipped with a CCD camera (Excitation: 470–490 nm, Emission: […]) (Molecular Devices, Sunnyvale, CA, USA). Signals were read every second for 10 s before, and 300 s after the addition of peptides in PSS supplemented with 0.1% bovine serum albumin. All data are the mean ± SEM of assays performed in triplicate. Maximum–minimum fluorescence in the 300 s period after peptide addition was recorded as the response. Concentration–response data were fitted with a four-parameter Hill equation (variable slope) using GraphPad Prism 8 to obtain effective concentration (EC50) values.

[1] = system: mouse dorsal root ganglion (DRG) cells; experiment: Calcium imaging of mammalian sensory neurons; format: cell-based; settings: 1 µM peptide, Fluo-4 calcium imaging, neuronal and non-neuronal cells
Experimental: Calcium imaging of a heterogenous population of mouse dorsal root ganglion (DRG) sensory neurons was performed as previously described. In brief, dorsal root ganglion (DRG) cells isolated from 4–8-week-old male C57BL/6 mice under ethics approval TRI/IMB/093/17 (University of Queensland Animal Ethics Committee, approval date 31/03/2017) were dissociated and then plated in Dulbecco’s modified Eagle’s medium (Gibco, Grand Island, NY, USA) containing 10% fetal bovine serum (FBS; Assaymatrix, Melbourne, Australia) and penicillin/streptomycin (Gibco) on a 96-well poly-D-lysine–coated culture plate (Corning, Lowell, MA, USA), and maintained overnight. Cells were loaded with Fluo-4 AM calcium indicator as per the manufacturer’s instructions (Thermo Fisher Scientific, Grand Island, NY, USA). After loading for 1 h, the dye solution was replaced with assay solution (Hanks’ balanced salt solution and 20 mM HEPES). Fluorescence corresponding to intracellular calcium ([Ca^2+]i) of typically 100–150 DRG cells per experiment was monitored in parallel using a Nikon Ti-E deconvolution inverted microscope, equipped with a Lumencor Spectra LED light source. Images were acquired at a 20× objective at one frame/s (excitation 485 nm; emission 521 nm). For each experiment, baseline fluorescence was monitored for 30 s and then a wash of assay solution was applied.

Drosophila melanogaster [2] = experiment: Drosophila melanogaster microinjection assay; format: in vivo; settings: intrathoracic injection, 50 nL, adult female flies, lethality at 24 h; three dose-response curves, ± SEM
Experimental: The insecticidal activity of the chemically synthesized 1a and analogues thereof were determined by injection into adult female D. melanogaster aged 3–5 days (mass 0.7–0.9 mg) as described previously. Analogues were dissolved in water and intrathoracically injected using pulled glass capillaries at a volume of 50 nL per fruit fly, and the results were compared against an equivalent injection volume of water alone. All injections were performed in the morning or early afternoon. At 24 h post-injection flies were monitored for lethality. Dose–response curves were constructed using 7–10 doses per analogue (each dose tested in eight flies) and three separate dose–response curves were constructed for each analogue. The lethality in the groups receiving the analogues were adjusted using the respective control group lethality using the Henderson-Tilton formula [20]. The median lethal dose (LD50) of each analogue was calculated based on the three dose–response curves using GraphPad Prism 8.0 [21]. One-way ANOVA followed by Dunnett’s multiple comparison test were used to compare LD50 values.

Drosophila melanogaster [3] = settings: same assay; cited from earlier work
Haemonchus contortus = experiment: microbe, parasite or virus in culture; format: cell-based; settings: for IC50: H. contortus Kirby isolate, egg to infective L3, 6 days, 26 °C, three experiments of duplicate assays, ± SEM, for 1a the component at higher concentrations (about 90% of population), read-out: Anthelmintic Activity (IC50), inhibition of larval development
Experimental: Sheep were infected with H. contortus Kirby isolate (field isolate from the University of New England Kirby Research Farm in 1986; susceptible to all commercial anthelmintics) and housed at the Commonwealth Scientific and Industrial Research Organisation (CSIRO) FD McMaster Laboratory, Armidale, NSW. All animal procedures were approved by the FD McMaster Animal Ethics Committee, CSIRO (Approval Number AEC 17/12, approval date 15.6.2017). Eggs were prepared from overnight fecal collection as described. In brief, feces were filtered through mesh filters, settled, and supernatant removed by vacuum. Eggs were recovered by density centrifugation using 10 and 25% (w/v) sucrose solutions, centrifuged at 650× g for 7 min. Eggs were recovered from the interface of the two sucrose layers, rinsed with distilled water, sterilized with bleach, rinsed again, and diluted to 4500 eggs/mL. Tylosin tartrate (800 μg/mL) and amphotericin B (25.0 μg/mL) were added, and eggs were used immediately for larval development assays.
Assays were conducted using 96-well microtitre plates, with each well containing 50 μL of 2% agar, 20 μL of egg solution and 20 μL of peptide solution in water. The commercial anthelmintic levamisole (Sigma Aldrich) was used as a positive control (final 1% v/v). Negative controls contained equivalent volumes of water or DMSO (final 1% v/v). Plates were incubated at 26 °C for six days. After 24 h, each well was fed with 10 μL of a nutrient solution containing Escherichia coli XL1-Blue1 (grown overnight at 37 °C) and growth medium. The growth medium consisted of yeast extract (1% w/v), Earle’s salt solution (10% v/v), saline solution (0.9% NaCl, w/v), and sodium bicarbonate (1 mM) in Luria-Bertani medium (LB). Larvae were killed and stained with Lugol’s iodine solution after six days. Larvae that had developed to the infective L3 stage were counted, and the numbers in treated assay wells were expressed as a percentage of the number of infective L3 stage larvae in multiple control wells. Concentrations that caused 50% inhibition (IC50 values) were calculated from three experiments of duplicate assays.

HEK293 cells = settings: HEK293, 24 h, resazurin; cited from earlier work
Experimental: Table 2 Summary of bioassay data for synthetic Mp1a and analogues, including effective concentration (EC50) for activation of F11 cells, concentrations that caused 50% inhibition (IC50) for inhibition of larval development of H. contortus; median lethal dose (LD50) for lethal insecticidal effects on D. melanogaster; concentrations required to induce 50% cell death (CC50) for effects on viability o | column: Cytotoxicity (CC50 µM) ^b

human red blood cells = settings: cited from earlier work
Experimental: Table 2 Summary of bioassay data for synthetic Mp1a and analogues, including effective concentration (EC50) for activation of F11 cells, concentrations that caused 50% inhibition (IC50) for inhibition of larval development of H. contortus; median lethal dose (LD50) for lethal insecticidal effects on D. melanogaster; concentrations required to induce 50% cell death (CC50) for effects on viability o | column: Hemolysis (HC50 µM) ^b

[4] = Calcium 4 dye, max-min fluorescence in 300 s after peptide addition, PSS with 0.1% BSA, mean ± SEM, triplicate

Compound	Concentration at which cytolysis (rapid increase in fluorescence followed by decrease to or below baseline) was observed (F11 cells) [µM]	Effect on [Ca2+]i of DRG cells [1]	Insecticidal Activity (LD50) (Drosophila melanogaster [2])	LD50 (insecticidal potency) (Drosophila melanogaster [3]) [pmol/g]	EC50 (F11 cells; Calcium 4 dye, max-min fluorescence in 300 s after peptide addition, PSS with 0.1% BSA, mean ± SEM, triplicate, read-out: Neuronal Cell Activation (EC50)) [µM]	IC50 (Haemonchus contortus) [µM]	Fold less active than levamisole (IC50 higher) (Haemonchus contortus; larval development, drug-susceptible isolate)	Cytotoxicity (CC50) (HEK293 cells) [µM]	Hemolysis (HC50) (human red blood cells) [µM]	Neuronal Cell Activation (EC50) (F11 cells; [4])
CC[C@H](C)[C@H](N)C(=O)N[C@@H](CC(=O)O)C(=O)N[C@@H](Cc1c[nH]c2ccccc12)C(=O)N[C@@H](CCCCN)C(=O)N[C@@H](CCCCN)C(=O)N[C@H](C(=O)N[C@@H](CC(=O)O)C(=O)N[C@@H](Cc1c[nH]c2ccccc12)C(=O)N[C@@H](CCCCN)C(=O)N[C@@H](CCCCN)C(=O)N[C@H](C(=O)N[C@@H](CO)C(=O)N[C@@H](CCCCN)C(=O)N[C@@H](CCCCN)C(=O)N[C@H](C(=O)N[C@H]1CSSC[C@@H](C(=O)N[C@@H](CCCCN)C(=O)N[C@@H](Cc2ccccc2)C(=O)N[C@@H](CC(C)C)C(N)=O)NC(=O)[C@H](C)NC(=O)[C@H](CCCCN)NC(=O)[C@H](CC(C)C)NC(=O)[C@H](CCSC)NC(=O)[C@H](C(C)C)NC(=O)[C@H](CCCCN)NC(=O)[C@@H](NC(=O)[C@@H](NC(=O)[C@H](CCCCN)NC(=O)[C@H](CCCCN)NC(=O)[C@H](CO)NC(=O)[C@@H](NC(=O)[C@H](CCCCN)NC(=O)[C@H](CCCCN)NC(=O)[C@H](Cc2c[nH]c3ccccc23)NC(=O)[C@H](CC(=O)O)NC(=O)[C@@H](NC(=O)[C@H](CCCCN)NC(=O)[C@H](CCCCN)NC(=O)[C@H](Cc2c[nH]c3ccccc23)NC(=O)[C@H](CC(=O)O)NC(=O)[C@@H](N)[C@@H](C)CC)C(C)C)C(C)C)[C@@H](C)O)CSSC[C@@H](C(=O)N[C@@H](CCCCN)C(=O)N[C@@H](Cc2ccccc2)C(=O)N[C@@H](CC(C)C)C(N)=O)NC(=O)[C@H](C)NC(=O)[C@H](CCCCN)NC(=O)[C@H](CC(C)C)NC(=O)[C@H](CCSC)NC(=O)[C@H](C(C)C)NC(=O)[C@H](CCCCN)NC1=O)[C@@H](C)O)C(C)C)C(C)C [Analogue 5a]	≥ 10	activated all DRG cells and caused dye leakage	415.4 ± 29.6 ^a pmol/g	–	–	–	–	–	–	–
ω-hexatoxin-Hv1a	–	–	–	9	–	–	–	–	–	–
CC[C@H](C)[C@H](N)C(=O)N[C@@H](CC(=O)O)C(=O)N[C@@H](Cc1c[nH]c2ccccc12)C(=O)N[C@@H](CCCCN)C(=O)N[C@@H](CCCCN)C(=O)N[C@H](C(=O)N[C@@H](CC(=O)O)C(=O)N[C@@H](Cc1c[nH]c2ccccc12)C(=O)N[C@@H](CCCCN)C(=O)N[C@@H](CCCCN)C(=O)N[C@H](C(=O)N[C@@H](CO)C(=O)N[C@@H](CCCCN)C(=O)N[C@@H](CCCCN)C(=O)N[C@H](C(=O)N[C@H]1CSSC[C@@H](C(=O)N[C@@H](CCCCN)C(=O)N[C@@H](CCCCN)C(=O)N[C@H](C(=O)N[C@@H](CC(C)C)C(=O)N[C@@H](CCCCN)C(=O)N[C@@H](CCC(N)=O)C(N)=O)C(C)C)NC(=O)[C@H](C(C)C)NC(=O)[C@H]([C@@H](C)O)NC(=O)[C@H](CCCCN)NC(=O)[C@H](C)NC(=O)[C@H](CC(C)C)NC(=O)[C@H](C(C)C)NC(=O)[C@@H](NC(=O)[C@@H](NC(=O)CNC(=O)[C@H](CCCCN)NC(=O)[C@H](CO)NC(=O)[C@@H](NC(=O)[C@H](CC(C)C)NC(=O)CNC(=O)[C@@H](NC(=O)[C@@H](N)CC(C)C)[C@@H](C)CC)C(C)C)[C@@H](C)O)CSSC[C@@H](C(=O)N[C@@H](CCCCN)C(=O)N[C@@H](Cc2ccccc2)C(=O)N[C@@H](CC(C)C)C(N)=O)NC(=O)[C@H](C)NC(=O)[C@H](CCCCN)NC(=O)[C@H](CC(C)C)NC(=O)[C@H](CCSC)NC(=O)[C@H](C(C)C)NC(=O)[C@H](CCCCN)NC1=O)[C@@H](C)O)C(C)C)C(C)C [Analogue 1c]	≥ 1	–	552.7 ± 18.2 ^a pmol/g	–	1.39 ± 0.34	7.2 ± 0.1	approximately 10 fold	0.7	> 12	–
CC[C@H](C)[C@H](NC(=O)[C@@H](N)CC(C)C)C(=O)NCC(=O)N[C@@H](CC(C)C)C(=O)N[C@H](C(=O)N[C@@H](CO)C(=O)N[C@@H](CCCCN)C(=O)NCC(=O)N[C@H](C(=O)N[C@H]1CSSC[C@@H](C(=O)N[C@@H](CCCCN)C(=O)N[C@@H](CCCCN)C(=O)N[C@H](C(=O)N[C@@H](CC(C)C)C(=O)N[C@@H](CCCCN)C(=O)N[C@@H](CCC(N)=O)C(N)=O)C(C)C)NC(=O)[C@H](C(C)C)NC(=O)[C@H]([C@@H](C)O)NC(=O)[C@H](CCCCN)NC(=O)[C@H](C(C)C)NC(=O)[C@H](CC(C)C)NC(=O)[C@H](C(C)C)NC1=O)[C@@H](C)O)C(C)C [Analogue 4a]	–	–	> 600 pmol/g	–	–	65.5 ± 5.5	–	> 15	> 15	inactive
H-IDWKKVDWKKVSKKTSKVMLKASKFL-NH2 [Analogue 3b]	–	–	> 600 pmol/g	–	–	64.9 ± 6.3	–	> 20	> 20	inactive
β-diguetoxin-Dc1a	–	–	–	59	–	–	–	–	–	–
